According to patent US20220202703A1, “IN SITU GEL-FORMING DELIVERY SYSTEMS, METHODS AND COMPOSITIONS” (Poly-Med, Inc., priority 2019, published 2022):

Test: Erdafitinib batch release study in artificial urine at 37° C., HPLC
Type: physicochemical
Conditions: in solution / through in vitro study, HPLC PDA detection
Source text: Scope: Load Erdafitinib into a limited number of proprietary delivery systems and perform a batch release study in artificial urine to determine release and stability of the active agent. Erdafitinib sourced from publicly available supplier having 99% purity. Obtained as fine yellow powder. Viscoprene® used as a hydrosetting gel carrier presenting as a high viscosity liquid. An encapsulant was used to provide a diffusion barrier around the Viscoprene/Erdafitinib matrix for some samples.
Formulation 1: Viscoprene and diluent release matrix. Formulation 2: Viscoprene release matrix. Formulation 3: Viscoprene in Encapsulant A. Formulation 4: Viscoprene in Encapsulant B. Step 1: Prepared release matrices (Erdafitinib in Viscoprene) with or without diluent (active matrix). Each study specimen included approximately 12 mg of drug. Step 2: Active matrix was encapsulated for Formulations 3 and 4. Step 3: Formulations were placed in artificial urine (USP method) at 37° C. Step 4: At time points, artificial urine was changed to fresh artificial urine. Step 5: Samples were analyzed for Erdafitinib content by HPLC.
An Isocratic HPLC method (non-stability indicating) able to identify Erdafitinib using a C18 column and water/acetonitrile mobile phase. Calibration curve generated with a R2 value of 0.9999. […] Sample preparation: Erdafitinib mixed readily into Viscoprene matrices. […]

COc1cc(OC)cc(N(CCNC(C)C)c2ccc3ncc(-c4cnn(C)c4)nc3c2)c1 [Erdafitinib, 1,2-Ethanediamine, N1-(3,5-dimethoxyphenyl)-N2-(1-methylethyl)-N1-(3-(1-methyl-1H-pyrazol-4-yl)-6-quinoxalinyl)-]
Erdafitinib stability (in words): provisionally stable over a suitable timeframe
Erdafitinib stability (in words) (listed as Erdatifinib): likely stable through in vitro study for extended duration
